In brackets after ≈: the same amount, converted by molar mass.

One series relates to P-gp. The experiment in a line: Apparent permeability in MDCK cells harboring Pgp. It is filed as ADME, cell-based, Canis lupus familiaris. To be noted: dog, MDCK-MDR1.
Series [1] in a line: Volume of distribution at steady state in rat at 0.5 mg/kg, iv by LC-MS/MS analysis. It is filed as ADME, organism-based. As to conditions: in vivo, read-out: Vdss.
In series [2] the test system is Plasma. The experiment in a line: Drug uptake in plasma of Sprague-Dawley rat at 100 mg/kg, po. The series is classed as ADME, organism-based. To be noted: in vivo.
The subject of series [3] is Plasma. The experiment in a line: Unbound drug uptake in plasma of Sprague-Dawley rat at 30 mg/kg, po. The series is classed as ADME, organism-based. As to conditions: in vivo.
A short description of series [4]: Ratio of drug uptake in brain to plasma of formalin-induced nociception Sprague-Dawley rat model at 100 mg/kg, po. The series is classed as ADME, organism-based. As to conditions: read-out: BPR.
The subject of series [5] is Plasma. Kind of series: Drug uptake in plasma of Sprague-Dawley rat at 300 mg/kg, po. It is filed as ADME, organism-based. To be noted: in vivo.
Series [6] relates to Plasma. The experiment in a line: Unbound drug uptake in plasma of formalin-induced nociception Sprague-Dawley rat model at 30 mg/kg, po. It is filed as ADME, organism-based. To be noted: in vivo.
The subject of series [7] is Plasma. Kind of series: Unbound drug uptake in plasma of formalin-induced nociception Sprague-Dawley rat model at 100 mg/kg, po. It is filed as ADME, organism-based. To be noted: in vivo.
In series [8] the test system is Plasma. The experiment in a line: Unbound drug uptake in plasma of Sprague-Dawley rat at 300 mg/kg, po. The series is classed as ADME, organism-based. As to conditions: in vivo.
The nature of series [9]: Aqueous solubility of compound in PBS buffer. The series is classed as physicochemical.
Series [10] concerns Plasma. The experiment in a line: Drug uptake in plasma of formalin-induced nociception Sprague-Dawley rat model at 100 mg/kg, po. The series is classed as ADME, organism-based. To be noted: in vivo.
In series [11] the test system is Plasma. Kind of series: Drug uptake in plasma of formalin-induced nociception Sprague-Dawley rat model at 30 mg/kg, po. It is filed as ADME, organism-based. As to conditions: in vivo.
The nature of series [12]: Oral bioavailability in rat at 100 mg/kg administered via gavage by LC-MS/MS analysis. The series is classed as ADME, organism-based. To be noted: in vivo.
Series [13] has as its system Plasma. Kind of series: Unbound drug uptake in plasma of Sprague-Dawley rat at 100 mg/kg, po. It is filed as ADME, organism-based. As to conditions: in vivo.
The subject of series [14] is Plasma. Kind of series: Drug uptake in Sprague-Dawley rat plasma at 30 mg/kg, po. The series is classed as ADME, organism-based. As to conditions: in vivo.
The nature of series [15]: Oral bioavailability in rat at 10 mg/kg administered via gavage by LC-MS/MS analysis. The series is classed as ADME, organism-based. As to conditions: in vivo.
Series [16] can be described thus: Oral bioavailability in rat at 40 mg/kg administered via gavage by LC-MS/MS analysis. To be noted: in vivo. The series is classed as ADME, organism-based.
Series [17] can be described thus: Oral bioavailability in rat at 30 mg/kg administered via gavage by LC-MS/MS analysis. To be noted: in vivo. It is filed as ADME, organism-based.

Broadly, the Papp is the rate of passage across a membrane or cell layer, normalised by area and donor concentration. Turning to `O=C(COc1cccc2cccnc12)Nc1ccccc1N1CCOCC1`, the Papp in the series with P-gp turned out to be 37 ×10⁻⁶ cm/s.
The solubility is the concentration that dissolves in the medium under given conditions. As usually defined, the bioavailability is dose-corrected exposure relative to a reference, in per cent. Regarding `Nc1cccnc1-c1cccc(C(=O)Nc2cccc(C(F)(F)F)c2-c2cccnc2)c1`, the Vd in series [1] stood at 1.29 L/kg. Also, the concentration with Plasma [2] came to 1800 nM; with Plasma [5] it was 3990 nM; in the series on Plasma [10] it was 1570 nM; with Plasma [11], 342 nM; in the series with Plasma [14] it was 549 nM. Besides, the “Cp(f)” value came to 98 nM in the series on Plasma [3]; 61 nM in the series on Plasma [6]; 281 nM with Plasma [7]; 714 nM with Plasma [8]; 322 nM in the series with Plasma [13]. Besides, the Kp in [4] turned out to be 0.36. This compound also came in with a solubility in series [9] of 470 µM (≈ 204 µg/mL). This compound came in with a bioavailability in series [12] of 73%.
With `O=C(Nc1cccc(C(F)(F)F)c1-c1cccnc1)c1cccc(-c2ncccc2Cl)c1`, the Vd in series [1] amounted to 1.27 L/kg. Further, the bioavailability in series [15] was 58%. The amount in solution in series [9] (solubility) came to 10 µM (≈ 4.54 µg/mL).
Consider `O=C(Nc1cccc(C(F)(F)F)c1-c1cccnc1)c1cccc(-c2ncccc2C(F)(F)F)c1`, for which, in series [1], the Vd is 0.57 L/kg. This compound yielded a solubility in series [9] of 22 µM (≈ 10.7 µg/mL). In series [16], this compound yielded a bioavailability of 26%.
Regarding `O=C(Nc1cccc(C(F)(F)F)c1-c1cccnc1)c1cccc(-c2ncccc2OC(F)F)c1`, the Papp in the series with P-gp was determined as 31 ×10⁻⁶ cm/s. The Vd in [1] amounted to 3 L/kg. This compound also came in with a bioavailability in [17] of 92%. In [9], the solubility came to 56 µM (≈ 27.2 µg/mL).
In the case of `O=C(Nc1cccc(C(F)(F)F)c1-c1cccnc1)c1cccc(-c2ccccn2)c1`, in series [1], the Vd is 1.4 L/kg. In [15], this compound gave a bioavailability of 54%. In series [9], this compound had a solubility of 12 µM (≈ 5.03 µg/mL).

The record behind these values is ChEMBL document CHEMBL4052739, “Discovery of a biarylamide series of potent, state-dependent NaV1.7 inhibitors” (Bioorg Med Chem Lett, 2017).
